Usually inhibition stands for the relative decrease from the control value, in per cent.

The first test concerns the target T1, Human Recombinant Matriptase 2 (Homo sapiens, UniProt Q8IU80).
T1 construct: purchased Enzo Life Sciences (an in-house preparation was also used) ALX-201-752-1
T1 sequence (Q8IU80 1-811): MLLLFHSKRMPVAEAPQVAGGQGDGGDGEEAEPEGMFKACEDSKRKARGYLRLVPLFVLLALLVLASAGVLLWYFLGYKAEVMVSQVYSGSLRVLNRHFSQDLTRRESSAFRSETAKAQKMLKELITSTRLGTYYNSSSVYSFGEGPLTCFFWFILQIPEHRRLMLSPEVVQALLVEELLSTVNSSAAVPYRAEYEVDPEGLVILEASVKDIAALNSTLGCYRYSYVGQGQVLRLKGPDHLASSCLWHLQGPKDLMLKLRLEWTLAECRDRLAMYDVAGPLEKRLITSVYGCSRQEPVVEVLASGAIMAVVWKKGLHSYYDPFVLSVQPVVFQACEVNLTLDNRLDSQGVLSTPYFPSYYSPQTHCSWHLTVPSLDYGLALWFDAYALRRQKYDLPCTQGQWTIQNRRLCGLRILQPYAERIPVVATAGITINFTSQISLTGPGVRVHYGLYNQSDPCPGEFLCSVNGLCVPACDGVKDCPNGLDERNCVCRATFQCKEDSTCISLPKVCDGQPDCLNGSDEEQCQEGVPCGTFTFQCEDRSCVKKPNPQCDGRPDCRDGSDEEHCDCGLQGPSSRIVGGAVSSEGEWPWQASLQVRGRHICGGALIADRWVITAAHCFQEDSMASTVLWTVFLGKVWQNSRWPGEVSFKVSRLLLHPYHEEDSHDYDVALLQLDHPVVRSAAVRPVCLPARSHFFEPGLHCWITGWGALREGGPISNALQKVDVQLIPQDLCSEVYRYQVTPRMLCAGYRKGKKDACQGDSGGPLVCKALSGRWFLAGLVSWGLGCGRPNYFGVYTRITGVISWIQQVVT
The test is described as follows: Matriptase 2 fluorescence based inhibition assay, Method B (50 mM TRIS pH 7.5, 150 mM NaCl, 0.01% gelatin). It counts as biochemical. To be noted: 1 uM compound; Assay Used = B (Method B). Summed up:
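Commercial (7 nM) or in-house (15 nM) enzyme preincubated 30 min with compound at 25° C, then 100 μM Boc-Gln-Ala-Arg-AMC added; fluorescence (Ex 360/Em 480 nm) read at 60 min. 1% DMSO final. IC50 from variable-slope sigmoidal fit of % inhibition.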
`N=C(N)c1ccc2cc(C(=O)N[C@H]3CC[C@H](N)CC3)n(Cc3ccc(C(=O)O)c4ccccc34)c2c1` [Compound I-673]: the “Mar-2 % inhibition at 1 uM” value is “B (B represents 25%≤I≤50%)”.

For `N=C(N)c1ccc2cc(C(=O)N[C@H]3CC[C@H](N)CC3)n(Cc3ccccc3-c3ccccc3)c2c1` [Compound I-646], the “Mar-2 % inhibition at 1 uM” value is reported as “A (A represents 0%≤I≤25%)”.

The test is the same for the next values; noted with them: 1 uM compound; Assay Used = B (Method B); read-out: Mar-2 % inhibition at 1 uM.
In the case of `N=C(N)c1ccc2cc(C(=O)NC3CCC(N)CC3)n(Cc3ccc(CN)c4ccccc34)c2c1` (stereo not shown) [Compound I-666], the inhibition at 1 µM fell in the range of 50 to 75%.

As for `CCOC(=O)c1cc2ccc(C(=N)N)cc2n1Cc1cc(S(=O)(=O)c2ccccc2)cc2ccccc12` [Compound I-669], the inhibition at 1 µM is 25 to 50%.

In the case of `N=C(N)c1cc2c(cn1)cc(C(=O)NC1CCC(N)CC1)n2Cc1cccc2ccccc12` (stereo not shown) [Compound I-690], the inhibition at 1 µM fell in the range of 75 to 100%.

For `COc1ccc2cccc(Cn3c(C(=O)N[C@H]4CC[C@H](N)CC4)cc4ccc(C(=N)N)cc43)c2c1` [Compound I-775], the inhibition at 1 µM was 75 to 100%.

Consider `Cn1c(C(=O)O)c(-c2ccc3ccccc3c2)c2cc(C(=N)N)ccc21` [Compound I-637], for which the inhibition at 1 µM fell in the range of 0 to 25%.

With `N=C(N)c1ccc2cc(C(=O)O)n(Cc3c[nH]c4ccccc34)c2n1` [Compound I-667], the inhibition at 1 µM was 25 to 50%.

In the case of `N=C(N)c1ccc2cc(C(=O)O)n(Cc3ccc(Oc4ccccc4)c4ccccc34)c2n1` [Compound I-679], the inhibition at 1 µM was 25 to 50%.

As for `N=C(N)c1ccc2cc(C(=O)N[C@H]3CC[C@H](N)CC3)n(Cc3cc(C(N)=O)cc4ccccc34)c2c1` [Compound I-796, N-((1r, 4r)-4-aminocyclohexyl)-6-carbamimidoyl-1-((3-carbamoylnaphthalen-1-yl)methyl)-1H-indole-2-carboxamide], the inhibition at 1 µM is 50 to 75%.

Turning to `CC(C)(C)OC(=O)N[C@H]1CC[C@H](NC(=O)c2cc3ccc(C(=N)N)cc3n2Cc2cccc3ccccc23)CC1` [Compound I-787], the inhibition at 1 µM lay in the range of 0 to 25%.

With `Cc1nnc(-c2cc3ccc(C(=N)N)cc3n2Cc2cccc3ccccc23)o1` [Compound I-751, 2-(5-methyl-1,3,4-oxadiazol-2-yl)-1-(naphthalen-1-ylmethyl)-1H-indole-6-carboximidamide], the inhibition at 1 µM was in the range of 50 to 75%.

As for `N=C(N)c1ccc2cc(C(=O)O)n(-c3cc(CO)c4ccccc4c3)c2c1` [Compound I-677], the inhibition at 1 µM was in the range of 50 to 75%.

`CN1CCC(OC(=O)c2cc3ccc(C(=N)N)cc3n2Cc2cccc3ccccc23)CC1` [Compound I-752]: the inhibition at 1 µM is 75 to 100%.

On to `N=C(N)c1ccc2cc(C(=O)N[C@H]3CCCc4ccccc43)n(Cc3cccc4ccccc34)c2c1` [Compound I-764], for which the inhibition at 1 µM was in the range of 0 to 25%.

In the case of `N=C(N)c1ccc2cc(N3CCOCC3)n(Cc3cccc4ccccc34)c2c1` [Compound I-644, 2-morpholino-1-(naphthalen-1-ylmethyl)-1H-indole-6-carboximidamide], the inhibition at 1 µM fell in the range of 25 to 50%.

For the molecule `COc1ccc(Oc2cc(Cn3c(C(=O)O)cc4ccc(C(=N)N)cc43)c3ccccc3c2)cc1` [Compound I-688], the inhibition at 1 µM fell in the range of 50 to 75%.

Take `N=C(N)c1ccc2cc(C(=O)O)n(Cc3csc4ccccc34)c2c1` [Compound I-703]: the inhibition at 1 µM fell in the range of 50 to 75%.

For the molecule `CC(C)(C)S(=O)(=O)c1cccc2c(Cn3c(C(=O)N[C@H]4CC[C@H](N)CC4)cc4ccc(C(=N)N)cc43)cccc12` [Compound I-742], the inhibition at 1 µM was 50 to 75%.

`N=C(N)c1ccc2cc(C(=O)O)n(Cc3cc(S(=O)(=O)c4ccccc4)cc4ccccc34)c2c1` [Compound I-678]: the inhibition at 1 µM lay in the range of 50 to 75%.

The test is the same for the next values; noted with them: 1 uM compound; Assay Used = B; read-out: Mar-2 % inhibition at 1 uM.
For the molecule `N=C(N)c1ccc2cc(C(=O)N[C@H]3CC[C@H](N)CC3)n(Cc3cccc4ccccc34)c2c1` [Compound I-407], the inhibition at 1 µM lay within 75 to 100%.

With `N=C(N)c1cc(F)c2cc(C(=O)O)n(Cc3cc(Oc4ncccn4)cc4ccccc34)c2c1` [Compound I-569, 6-carbamimidoyl-4-fluoro-1-((3-(pyrimidin-2-yloxy)naphthalen-1-yl)methyl)-1H-indole-2-carboxylic Acid], the inhibition at 1 µM was 75 to 100%.

As for `CC(C)COC(=O)NC(=N)c1ccc2cc(C(=O)NC3CCN(C)CC3)n(Cc3cc(Oc4ncccn4)cc4ccccc34)c2c1` [Compound I-557], the inhibition at 1 µM was in the range of 0 to 25%.

With `CS(=O)(=O)Nc1cc(Cn2c(C(=O)O)cc3ccc(C(=N)N)cc32)c2ccccc2c1` [Compound I-546], the inhibition at 1 µM is 75 to 100%.

As to `CC(C)(C)OC(=O)NC(=N)c1ccc2cc(C(=O)N3CC[C@H](O)C3)n(Cc3cccc4ccccc34)c2c1` (stereo in doubt) [Compound I-424], the inhibition at 1 µM was 0 to 25%.

Take `N=C(N)c1ccc2cc(C(=O)N3CCC(CO)CC3)n(Cc3cccc4ccccc34)c2c1` [Compound I-444]: the inhibition at 1 µM lay in the range of 25 to 50%.

Consider `N=C(N)c1ccc2cc(C(=O)N[C@H]3CC[C@H](N)CC3)n(Cc3cncc4ccccc34)c2c1` [Compound I-507], for which the inhibition at 1 µM lay within 50 to 75%.

On to `N=C(N)c1ccc2cc(CO)n(Cc3cccc4ccccc34)c2c1` [Compound I-487, 2-(hydroxymethyl)-1-(naphthalen-1-ylmethyl)-1H-indole-6-carboximidamide], for which the inhibition at 1 µM is 50 to 75%.

Take `Cc1c(C(=O)N[C@H]2CC[C@H](N)CC2)n(Cc2cc(Oc3ncccn3)cc3ccccc23)c2cc(C(=N)N)ccc12` [Compound I-591]: the inhibition at 1 µM lay in the range of 75 to 100%.

In the case of `N=C(N)c1ccc2cc(C(=O)Nc3cccc(N4CCCC4)n3)n(Cc3cccc4ccccc34)c2c1` [Compound I-461], the inhibition at 1 µM lay in the range of 25 to 50%.

Consider `NC(=O)c1ccc2cc(C(=O)N[C@@H]3CCNC3)n(Cc3cccc4ccccc34)c2c1` [Compound I-456], for which the inhibition at 1 µM lay within 0 to 25%.

`N=C(N)c1ccc2cc(C(=O)NCC3CCNCC3)n(Cc3cccc4ccccc34)c2c1` [Compound I-497, 6-carbamimidoyl-1-(naphthalen-1-ylmethyl)-N-(piperidin-4-ylmethyl)-1H-indole-2-carboxamide]: the inhibition at 1 µM lay in the range of 75 to 100%.

Turning to `NCc1ccc2cc(C(=O)NC3CCNCC3)n(Cc3cccc4ccccc34)c2c1` [Compound I-533], the inhibition at 1 µM is 25 to 50%.

For `N=C(N)c1ccc2cc(C(=O)N(CCO)C3CCC(N)CC3)n(Cc3cccc4ccccc34)c2c1` (stereo not shown) [Compound I-453], the inhibition at 1 µM lay in the range of 50 to 75%.

Turning to `N=C(N)c1ccc2cc(C(=O)N3CC4CC3CN4)n(Cc3cccc4ccccc34)c2c1` (stereo not shown) [Compound I-454], the inhibition at 1 µM fell in the range of 75 to 100%.

As for `N=C(N)c1ccc2cc(C(=O)NS(=O)(=O)C3CC3)n(Cc3cccc4ccccc34)c2c1` [Compound I-484], the inhibition at 1 µM is 25 to 50%.

As for `N=C(N)c1ccc2cc(C(=O)N3CCOCC3)n(Cc3cccc4ccccc34)c2c1` [Compound I-468], the inhibition at 1 µM fell in the range of 25 to 50%.

With `N=C(N)c1ccc2cc(C(=O)N[C@H]3CC[C@H](N)CC3)n(C(C(=O)O)c3cccc4ccccc34)c2c1` (stereo partly shown) [Compound I-502], the inhibition at 1 µM is 0 to 25%.

`CN1CCC(NC(=O)c2cc3ccc(CN)cc3n2Cc2cccc3ccccc23)CC1` [Compound I-535]: the inhibition at 1 µM was in the range of 25 to 50%.

The same test, now with this note: compound at 1 uM; Assay Used: B; read-out: Mar-2 % inhibition at 1 uM.
In the case of `N=C(N)c1ccc2cc(C(=O)N[C@H]3CC[C@H](N)CC3)n(Cc3cccc4sc(CO)cc34)c2c1` [Compound I-813, N-((1r,4r)-4-aminocyclohexyl)-6-carbamimidoyl-1-((2-(hydroxymethyl)benzo[b]thiophen-4-yl)methyl)-1H-indole-2-carboxamide], the inhibition at 1 µM was in the range of 50 to 75%.

With `N=C(N)c1ccc2cc(C(=O)N[C@H]3CC[C@H](N)CC3)n(Cc3cccc4c3CCCC4)c2c1` [Compound I-814], the inhibition at 1 µM is 25 to 50%.

Take `N=C(N)c1ccc2cc(C(=O)O)n(Cc3cccc4cc(O)ccc34)c2c1` [Compound I-821]: the inhibition at 1 µM lay in the range of 75 to 100%.

Consider `CN(C)CCCOc1ccc2c(Cn3c(C(=O)O)cc4ccc(C(=N)N)cc43)cccc2c1` [Compound I-808], for which the inhibition at 1 µM fell in the range of 50 to 75%.

For the molecule `COc1cccc2c(Cn3c(C(=O)N[C@H]4CC[C@H](N)CC4)cc4ccc(C(=N)N)cc43)cccc12` [Compound I-797], the inhibition at 1 µM lay within 75 to 100%.

On to `N=C(N)c1ccc2cc(C(=O)NCCc3c[nH]c4ccc(O)cc34)n(Cc3cc(Oc4ncccn4)cc4ccccc34)c2c1` [Compound I-826], for which the inhibition at 1 µM was in the range of 25 to 50%.

The same test, now with this note: read-out: Mar-2 % inhibition at 1 uM.
On to `CN1CCC(NC(=O)c2cc3ccc(C(=N)NC(=O)Oc4ccc(F)cc4)cc3n2Cc2cc(Oc3ncccn3)cc3ccccc23)CC1` [Compound I-545], for which the inhibition at 1 µM was 25 to 50%.

Values taken from patent US12428415B2, “Matriptase 2 inhibitors and uses thereof” (Disc Medicine, Inc., priority 2018, dated 2025).
